Measured values: PubChem BioAssay AID1963852 (Molecular Pharmacology Branch, DTP, NCI, 2024)

System: 282377-053-R-J1-PDC complex spheroid viability
Test: Anticancer human tumor 282377-053-R-J1-PDC patient-derived colon adenocarcinoma cell line growth inhibition [POLQ]
Conditions: for IC50: curve of first compound; for viability, T/C: stronger effect = lower value
Description: Multicellular complex tumor spheroid response to Polymerase (POL) inhibitors (novobiocin, ART-558, RP6685) in combination with a variety of drugs and investigational agents in selected tumor cell lines
The POL inhibitors (novobiocin, ART-558, and RP6685) were evaluated both individually and in combination with standard of care and investigational anticancer small molecules within a complex spheroid model of solid tumors. . Complex spheroids include a stromal component modeled by human endothelial cells (HUVEC) and fibroblasts modeled by human mesenchymal stem cells (MSCs). The concentration ranges selected for each drug and investigational agent were based upon clinically achievable concentrations if the clinical Cmax of the agent was known.
Compounds. The drugs and investigational agents: novobiocin (NSC847541), ART-558 (NSC835418), RP-6685 (NSC848927), peposertib (NSC802822), ceralasertib (NSC780249), elimusertib (NSC800525), camonsertib (NSC841442), AZD-1390 (NSC803789), olaparib (NSC753686), talazoparib (NSC767125), rucaparib (NSC756644), sotorasib (NSC818433), MRTX-1133 (NSC836407), SN-38 (NSC673596), topotecan (NSC609699), epotoside (NSC141540), doxorubicin (NSC123127), gemcitabine (NSC613327), 5-fluorouracil (NSC19893), paclitaxel (NSC125973), vemurafenib (NSC761431), MSA-2 (NSC828583), SN-011 (NSC837082), adavosertib (NSC754352), prexasertib (NSC758257), carboplatin (NSC241240) and oxaliplatin (NSC266046), were obtained from the National Cancer Institute (NCI) Developmental Therapeutics Program Chemical Repository (21). The FDA-approved anticancer drug set is available from the Developmental Therapeutics Program at https://dtp.cancer.gov/organization/dscb/obtaining/. […] The stock solutions were prepared in dimethyl sulfoxide (DMSO, Sigma-Aldrich, St. Louis, MO, cat. D2650), except for the platinum compounds which were prepared in saline (Quality Biological, Gaithersburg, MD, cat. 114-055-101), at 800-fold the tested concentration and stored at -70 degrees C prior to their use. All drugs and investigational agents were tested over a range starting from a high concentration at or near the clinical Cmax and decreasing in half-log increments. If the clinical Cmax for an agent had not been determined, the highest concentration tested was 10 microM, except for SN-38, which was tested at a high concentration of 1 microM.
Cell Culture. All cells were maintained in an incubator at 37 degrees C and 5% CO2 with 95% humidity. The PDC lines were cultured according to standard operating procedures established by the NCI PDMR (https://pdmr.cancer.gov). Table 3 of the manuscript, lists the cell lines along with the number of the three cell types plated to form the mct-spheroids and media for tumor cell growth. After thawing, all PDC lines, except 997537-175-T-J1-PDC and 415267-285-R-J2-PDC, were cultured in Matrigel-coated flasks prepared with a working solution of 1X Ham's F-12 nutrient mix, without supplementation (Thermo Fisher Scientific, cat. 11765054), 100 U/mL penicillin-streptomycin (Thermo Fisher Scientific, cat. 15140122), and 2.5% Matrigel (Corning Inc., Corning, NY, cat. 354248) for the first three passages. The two PDC lines 997537-175-T-J1-PDC and 415267-285-R-J2-PDC were cultured on uncoated flasks. The 857933-349-R-J2-PDC line was cultured in 6C/Colon 1B media containing advanced DMEM/F-12 (Thermo Fisher Scientific, cat. 12634028), 10 mM HEPES (Thermo Fisher Scientific, cat. 15630080), 1X GlutaMAX supplement (Thermo Fisher Scientific, cat. 35050061), 0.1 mg/mL primocin (InvivoGen, San Diego, CA, cat. ant-pm-2), 10% defined fetal bovine serum, heat inactivated (HyClone Laboratories Inc., Logan, UT, cat. SH30070.03HI), 50% L-WRN conditioned media (ATCC, cat. CRL-3276), 1.25 mM N-Acetyl-L-cysteine (Sigma-Aldrich, cat. A9165), 10 mM nicotinamide (Sigma-Aldrich, cat. N0636), 1X B-27 supplement (Thermo Fisher Scientific, cat. 17504044), 1X N-2 supplement (Thermo Fisher Scientific, cat. […]

[1] = second compound 0.0316 µM, first compound 0.0316 µM
[2] = second compound 0.0316 µM, first compound 0.1 µM
[3] = second compound 0.0316 µM, first compound 0.316 µM
[4] = second compound 0.0316 µM, first compound 1 µM
[5] = second compound 0.1 µM, first compound 0.0316 µM
[6] = second compound 0.1 µM, first compound 0.1 µM
[7] = second compound 0.1 µM, first compound 0.316 µM
[8] = second compound 0.1 µM, first compound 1 µM
[9] = second compound 0.316 µM, first compound 0.0316 µM
[10] = second compound 0.316 µM, first compound 0.1 µM
[11] = second compound 0.316 µM, first compound 0.316 µM
[12] = second compound 0.316 µM, first compound 1 µM
[13] = second compound 1 µM, first compound 0.0316 µM
[14] = second compound 1 µM, first compound 0.1 µM
[15] = second compound 1 µM, first compound 0.316 µM
[16] = second compound 1 µM, first compound 1 µM
[17] = second compound 3.16 µM, first compound 0.0316 µM
[18] = second compound 3.16 µM, first compound 0.1 µM
[19] = second compound 3.16 µM, first compound 0.316 µM
[20] = second compound 3.16 µM, first compound 1 µM
[21] = second compound 10 µM, first compound 0.0316 µM
[22] = second compound 10 µM, first compound 0.1 µM
[23] = second compound 10 µM, first compound 0.316 µM
[24] = second compound 10 µM, first compound 1 µM
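Also: spheroids exposed to compounds for seven days.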
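For viability, T/C in this document: 100% = DMSO vehicle control viability.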

C#Cc1c(F)ccc2cc(O)cc(-c3ncc4c(N5CC6CCC(C5)N6)nc(OCC56CCCN5CC(F)C6)nc4c3F)c12 (centres undefined) + Nc1ccc(C#CCN(C(=O)Cc2ncc(C(F)(F)F)cc2C(F)(F)F)c2ccc(F)cc2)nn1
IC50 (second compound 0.0316 µM): > 10000 nM
IC50 (second compound 0.1 µM): > 10000 nM
IC50 (second compound 0.316 µM): > 10000 nM
IC50 (second compound 1 µM): > 10000 nM
IC50 (second compound 3.16 µM): > 10000 nM
IC50 (second compound 10 µM): > 10000 nM
viability, T/C [1]: 101%
viability, T/C [2]: 114%
viability, T/C [3]: 91.2%
viability, T/C [4]: 97.5%
viability, T/C (second compound 0.0316 µM, first compound 3.16 µM): 99.8%
viability, T/C (second compound 0.0316 µM, first compound 10 µM): 84.8%
viability, T/C [5]: 99.8%
viability, T/C [6]: 108%
viability, T/C [7]: 83.5%
viability, T/C [8]: 116%
viability, T/C (second compound 0.1 µM, first compound 3.16 µM): 99.5%
viability, T/C (second compound 0.1 µM, first compound 10 µM): 79.6%
viability, T/C [9]: 97.1%
viability, T/C [10]: 106%
viability, T/C [11]: 94.9%
viability, T/C [12]: 85.2%
viability, T/C (second compound 0.316 µM, first compound 3.16 µM): 118%
viability, T/C (second compound 0.316 µM, first compound 10 µM): 110%
viability, T/C [13]: 93%
viability, T/C [14]: 121%
viability, T/C [15]: 105%
viability, T/C [16]: 92.7%
viability, T/C (second compound 1 µM, first compound 3.16 µM): 94.7%
viability, T/C (second compound 1 µM, first compound 10 µM): 96.8%
viability, T/C [17]: 121%
viability, T/C [18]: 120%
viability, T/C [19]: 94%
viability, T/C [20]: 107%
viability, T/C (second compound 3.16 µM, first compound 3.16 µM): 90.2%
viability, T/C (second compound 3.16 µM, first compound 10 µM): 96.3%
viability, T/C [21]: 117%
viability, T/C [22]: 107%
viability, T/C [23]: 109%
viability, T/C [24]: 112%
viability, T/C (second compound 10 µM, first compound 3.16 µM): 90.8%
viability, T/C (second compound 10 µM, first compound 10 µM): 119%

COc1cccc(OCCCN)c1-c1cc(Nc2cnc(C#N)cn2)n[nH]1 + Nc1ccc(C#CCN(C(=O)Cc2ncc(C(F)(F)F)cc2C(F)(F)F)c2ccc(F)cc2)nn1
IC50 (second compound 0.0316 µM): 370 nM
IC50 (second compound 0.1 µM): 285 nM
IC50 (second compound 0.316 µM): 298 nM
IC50 (second compound 1 µM): 577 nM
IC50 (second compound 3.16 µM): 242 nM
IC50 (second compound 10 µM): 212 nM
viability, T/C (second compound 0.0316 µM, first compound 0.00316 µM): 128%
viability, T/C (second compound 0.0316 µM, first compound 0.01 µM): 93.5%
viability, T/C [1]: 85%
viability, T/C [2]: 66.8%
viability, T/C [3]: 55.3%
viability, T/C [4]: 37%
viability, T/C (second compound 0.1 µM, first compound 0.00316 µM): 89.7%
viability, T/C (second compound 0.1 µM, first compound 0.01 µM): 97.3%
viability, T/C [5]: 72.9%
viability, T/C [6]: 62.4%
viability, T/C [7]: 51.8%
viability, T/C [8]: 39%
viability, T/C (second compound 0.316 µM, first compound 0.00316 µM): 94.9%
viability, T/C (second compound 0.316 µM, first compound 0.01 µM): 88.3%
viability, T/C [9]: 73.4%
viability, T/C [10]: 58.1%
viability, T/C [11]: 53.2%
viability, T/C [12]: 38%
viability, T/C (second compound 1 µM, first compound 0.00316 µM): 110%
viability, T/C (second compound 1 µM, first compound 0.01 µM): 90.3%
viability, T/C [13]: 76.4%
viability, T/C [14]: 58.4%
viability, T/C [15]: 53.7%
viability, T/C [16]: 47.5%
viability, T/C (second compound 3.16 µM, first compound 0.00316 µM): 97.6%
viability, T/C (second compound 3.16 µM, first compound 0.01 µM): 93.5%
viability, T/C [17]: 81.3%
viability, T/C [18]: 74.9%
viability, T/C [19]: 39.7%
viability, T/C [20]: 35.6%
viability, T/C (second compound 10 µM, first compound 0.00316 µM): 103%
viability, T/C (second compound 10 µM, first compound 0.01 µM): 96.7%
viability, T/C [21]: 99.9%
viability, T/C [22]: 66.7%
viability, T/C [23]: 43.3%
viability, T/C [24]: 36.3%
